≈ marks a conversion by molar mass, not a printed value. Like-named read-outs stand apart in the source and are kept apart here.
Legend:
Assay type in all cases: cell-based
[1] = tested on: H. influenzae 30063; experiment: MIC by agar dilution, H. influenzae 30063
From the text: (§1) The in vitro activity of compounds of the subject invention may be assessed by standard testing procedures such as the determination of minimum inhibitory concentration (MIC) by agar dilution as described in “Approved Standard. Methods for Dilution Antimicrobial Susceptibility Tests for Bacteria that Grow Aerobically,” 3rd ed., published 1993 by the National Committee for Clinical Laboratory standards, Villanova, Pa., USA.
(§2) The in vitro MICs of test compounds may be determined by a standard agar dilution method. A stock drug solution of each analog is prepared in a preferred solvent, usually DMSO:H2O (1:3). Serial 2-fold dilutions of each sample are made using 1.0 ml aliquots of sterile distilled water. To each 1.0 ml aliquot of drug is added 9 ml of molten Mueller Hinton agar medium. The drug-supplemented agar is mixed, poured into 15×100 mm petri dishes, and allowed to solidify and dry prior to inoculation.
(§3) Vials of each of the test organisms are maintained frozen in the vapor phase of a liquid nitrogen freezer. Test cultures are grown overnight at 35° C. on the medium appropriate for the organism. Colonies are harvested with a sterile swab, and cell suspensions are prepared in Trypticase Soy broth (TSB) to equal the turbidity of a 0.5 McFarland standard. A 1:20 dilution of each suspension is made in TSB. The plates containing the drug supplemented agar are inoculated with a 0.001 ml drop of the cell suspension using a Steers replicator, yielding approximately 10^4 to 10^5 cells per spot. The plates are incubated overnight at 35° C.
(§4) Following incubation the Minimum Inhibitory Concentration (MIC μg/ml), the lowest concentration of drug that inhibits visible growth of the organism, is read and recorded.
(§5) The in vitro MICs of test compounds were determined by a standard agar dilution method. A stock drug solution of each analog was prepared in the preferred solvent, usually DMSO:H2O (1:3). Serial 2-fold dilutions of each sample are made using 1.0 ml aliquots of sterile distilled water. To each 1.0 ml aliquot of drug was added 9 ml of molten Mueller Hinton agar medium The drug-supplemented agar was mixed, poured into 15×100 mm petri dishes, and allowed to soldify and dry prior to inoculation.
(§6) Vials of each of the test organisms are maintained frozen in the vapor phase of a liquid nitrogen freezer. Test cultures are grown overnight at 35° C. on the medium appropriate for the organism. Colonies are harvested with a sterile swab, and cell suspensions are prepared in Trypticase Soy broth (TSB) to equal the turbidity of a 0.5 McFarland standard. A 1:20 dilution of each suspension was made in TSB. The plates containing the drug supplemented agar are inoculated with a 0.001 ml drop of the cell suspension using a Steers replicator, yielding approximately 10^4 to 10^5 cells per spot. The plates are incubated overnight at 35° C. Following incubation the Minimum Inhibitory Concentration (MIC μg/ml), the lowest concentration of drug that inhibits visible growth of the organism, was read and recorded.

[2] = tested on: S. aureus UC9213; experiment: MIC by agar dilution, S. aureus UC9213; conditions: Staphylococcus aureus
From the text: as §1, §2, §3, §4, §5, §6

[3] = tested on: S. pneumoniae UC9912; experiment: MIC by agar dilution, S. pneumoniae UC9912; conditions: Streptococcus pneumoniae
From the text: as §1, §2, §3, §4, §5, §6

[4] = Haemophilus influenzae, 30063, read-out: MIC against H. influenza (30063)
[5] = UC9213, agar dilution, Mueller Hinton agar, overnight at 35° C., read-out: S. aureus UC9213 MIC
[6] = Haemophilus influenzae, 30063, agar dilution, Mueller Hinton agar, overnight at 35° C., read-out: H. influenzae 30063 MIC
[7] = UC9912, agar dilution, Mueller Hinton agar, overnight at 35° C., read-out: S. pneumoniae UC9912 MIC

Structure (SMILES) | MIC [1, 4] [µg/mL] | MIC [2, 5] [µg/mL] | MIC [1, 6] [µg/mL] | MIC [3, 7] [µg/mL] | other results
CCN(CC)C(=O)COC(=O)[C@H]1[C@@H]2CN(c3c(F)cc(N4C[C@H](CNC(=O)C(Cl)Cl)OC4=O)cc3F)C[C@@H]21 [Example 13, 2-(diethylamino)-2-oxoethyl exo-(1R,5S)-3-[4-((5S)-5-{[(dichloroacetyl)amino]methyl}-2-oxo-1,3-oxazolidin-3-yl)-2,6-difluorophenyl]-3-azabicyclo[3.1.0]hexane-6-carboxylate] | > 64 |  |  |  | 
COC(=O)[C@H]1[C@@H]2CN(c3c(F)cc(N4C[C@H](CNC(=O)C(F)F)OC4=O)cc3F)C[C@@H]21 [Example 16, methyl exo-(1R,5S)-3-[4-((5S)-5-{[(difluoroacetyl)amino]methyl}-2-oxo-1,3-oxazolidin-3-yl)-2,6-difluorophenyl]-3-azabicyclo[3.1.0]hexane-6-carboxylate] | > 64 |  |  |  | 
CCN(CC)C(=O)COC(=O)[C@H]1[C@@H]2CN(c3c(F)cc(N4C[C@H](CNC(=O)C(F)F)OC4=O)cc3F)C[C@@H]21 [Example 17] | > 64 |  |  |  | 
CC(=O)NC[C@H]1CN(c2cc(F)c(N3C[C@@H]4[C@H](C3)[C@H]4NC(=O)Nc3ccccc3)c(F)c2)C(=O)O1 [Example 28, N-{[(5S)-3-(4-{exo-(1R,5S)-6-[(anilinocarbonyl)amino]-3-azabicyclo[3.1.0]hex-3-yl}-3,5-difluorophenyl)-2-oxo-1,3-oxazolidin-5-yl]methyl}acetamide] | > 64 |  |  |  | 
CCC(=O)NC[C@H]1CN(c2cc(F)c(N3CC4OC4C3)c(F)c2)C(=O)O1 (stereo partly drawn) [Example 41, N-({(5S)-3-[3,5-difluoro-4-(6-oxa-3-azabicyclo[3.1.0]hex-3-yl)phenyl]-2-oxo-1,3-oxazolidin-5-yl}methyl)propanamide] |  | 2 (≈ 5.44 µM) | 16 (≈ 43.6 µM) | 0.5 (≈ 1.36 µM) | 
CC(=O)NC[C@H]1CN(c2ccc(N3CC4NC4C3)c(F)c2)C(=O)O1 (stereo partly shown) [Example 49] |  |  |  |  | MIC ([2]; UC9213, read-out: S. aureus UC9213 MIC, μg/mL): 4 µg/mL (≈ 12 µM); MIC ([1]; Haemophilus influenzae, 30063, read-out: H. influenzae 30063 MIC, μg/mL): 8 µg/mL (≈ 23.9 µM); MIC ([3]; UC9912, read-out: S. pneumoniae UC9912 MIC, μg/mL): 0.5 µg/mL (≈ 1.5 µM)
COCC(=O)N1C2CN(c3ccc(N4C[C@H](CNC(C)=O)OC4=O)cc3F)CC21 (stereo partly drawn) [Example 51, N-({(5S)-3-[4-(6-methoxyacetyl-3,6-diazabicyclo[3.1.0]hex-3-yl)-3-fluorophenyl]-2-oxo-1,3-oxazolidin-5-yl}methyl)acetamide] |  | 8 (≈ 19.7 µM) | 32 (≈ 78.7 µM) | 2 (≈ 4.92 µM) | 
CC(=O)NC[C@H]1CN(c2ccc(N3CC4C(C3)N4C(=O)COC(C)=O)c(F)c2)C(=O)O1 (stereo partly drawn) [Example 52, 2-[3-(4-(5S)-5-[(acetylamino)methyl]-2-oxo-1,3-oxazolidin-3-yl}2-fluorophenyl)-3,6-diazabicyclo[3.1.0]hex-6-yl]-2-oxoethyl acetate] |  | 1 | 32 | 1 | 

The next lines start with results.

MIC [1, 4] [µg/mL] | MIC [2, 5] [µg/mL] | MIC [1, 6] [µg/mL] | MIC [3, 7] [µg/mL] | Structure (SMILES) | other results
> 64 |  |  |  | CC(=O)NC[C@H]1CN(c2cc(F)c(N3C[C@@H]4[C@H](C3)[C@H]4C(=O)N(C)C)c(F)c2)C(=O)O1 [Example 3] | 
 | 1 (≈ 2.83 µM) | 8 (≈ 22.6 µM) | 0.5 (≈ 1.42 µM) | CC(=O)NC[C@H]1CN(c2cc(F)c(N3CC4OC4C3)c(F)c2)C(=O)O1 (stereo partly shown) [Example 40] | 
 | 8 (≈ 21.3 µM) | 64 (≈ 170 µM) | 2 (≈ 5.31 µM) | CC(=O)NC[C@H]1CN(c2ccc(N3CC4C(C3)N4C(C)=O)c(F)c2)C(=O)O1 (stereo partly drawn) [Example 50, N-({(5S)-3-[4-(6-acetyl-3,6-diazabicyclo[3.1.0]hex-3-yl)-3-fluorophenyl]-2-oxo-1,3-oxazolidin-5-yl]methyl)acetamide] | 
16 (≈ 47.4 µM) |  |  |  | CC(=O)NC[C@H]1CN(c2ccc(N3CCOCC3)c(F)c2)C(=O)O1 [linezolid, reference compound] | MIC ([3]; UC9912, read-out: MIC against S. pneumoniae (UC 9912)): 1 µg/mL (≈ 2.96 µM)
